Source: ChEMBL document CHEMBL3046208, “Natural and synthetic podolactones with potential use as natural herbicide models” (2000)
Activity calls are given as the source filed them. No cut-off for these calls is given here.

Assays:
Format in all cases: functional
Hordeum vulgare [1] = test: Stimulation of shoot length of Hordeum vulgare (barley) at 0.1 mM after 5 days relative to untreated control
Lactuca sativa [2] = test: Inhibition of shoot length of Lactuca sativa cv. Roman (lettuce) at 0.1 mM after 5 days relative to untreated control; conditions: 120 h
Lepidium sativum [3] = test: Stimulation of shoot length of Lepidium sativum at 0.1 mM after 5 days relative to untreated control
Lactuca sativa [4] = test: Stimulation of germination of Lactuca sativa cv. Nigra (lettuce) at 0.1 mM after 5 days relative to untreated control
Lactuca sativa [5] = test: Inhibition of germination of Lactuca sativa cv. Nigra (lettuce) at 0.1 mM after 5 days relative to untreated control; conditions: for inhibition at 100 µM: 120 h
Allium cepa [6] = test: Inhibition of root length of Allium cepa (onion) at 0.1 mM after 5 days relative to untreated control; conditions: for inhibition at 100 µM: 120 h
Lactuca sativa [7] = test: Stimulation of shoot length of Lactuca sativa cv. Nigra (lettuce) at 0.1 mM after 5 days relative to untreated control
Solanum lycopersicum [8] = test: Inhibition of root length of Solanum lycopersicum (tomato) at 0.1 mM after 5 days relative to untreated control; conditions: for inhibition at 100 µM: 120 h
Solanum lycopersicum [9] = test: Stimulation of shoot length of Solanum lycopersicum (tomato) at 0.1 mM after 5 days relative to untreated control
Lepidium sativum [10] = test: Inhibition of root length of Lepidium sativum at 0.1 mM after 5 days relative to untreated control
Lactuca sativa [11] = test: Stimulation of root length of Lactuca sativa cv. Nigra (lettuce) at 0.1 mM after 5 days relative to untreated control
Allium cepa [12] = test: Stimulation of root length of Allium cepa (onion) at 0.1 mM after 5 days relative to untreated control
Lactuca sativa [13] = test: Stimulation of root length of Lactuca sativa cv. Roman (lettuce) at 0.1 mM after 5 days relative to untreated control
Lactuca sativa [14] = test: Inhibition of germination of Lactuca sativa cv. Roman (lettuce) at 0.1 mM after 5 days relative to untreated control; conditions: 120 h
Triticum aestivum [15] = test: Stimulation of root length of Triticum aestivum (wheat) at 0.1 mM after 5 days relative to untreated control
Lactuca sativa [16] = test: Inhibition of root length of Lactuca sativa cv. Roman (lettuce) at 0.1 mM after 5 days relative to untreated control
Hordeum vulgare [17] = test: Inhibition of shoot length of Hordeum vulgare (barley) at 0.1 mM after 5 days relative to untreated control
Lactuca sativa [18] = test: Stimulation of shoot length of Lactuca sativa cv. Roman (lettuce) at 0.1 mM after 5 days relative to untreated control
Hordeum vulgare [19] = test: Stimulation of root length of Hordeum vulgare (barley) at 0.1 mM after 5 days relative to untreated control
Allium cepa [20] = test: Inhibition of germination of Allium cepa (onion) at 0.1 mM after 5 days relative to untreated control; conditions: 120 h
Lactuca sativa [21] = test: Inhibition of shoot length of Lactuca sativa cv. Nigra (lettuce) at 0.1 mM after 5 days relative to untreated control; conditions: for inhibition at 100 µM: 120 h
Lepidium sativum [22] = test: Stimulation of germination of Lepidium sativum at 0.1 mM after 5 days relative to untreated control
Allium cepa [23] = test: Stimulation of shoot length of Allium cepa (onion) at 0.1 mM after 5 days relative to untreated control
Solanum lycopersicum [24] = test: Stimulation of germination of Solanum lycopersicum (tomato) at 0.1 mM after 5 days relative to untreated control
Allium cepa [25] = test: Inhibition of shoot length of Allium cepa (onion) at 0.1 mM after 5 days relative to untreated control; conditions: 120 h
Solanum lycopersicum [26] = test: Stimulation of root length of Solanum lycopersicum (tomato) at 0.1 mM after 5 days relative to untreated control
Hordeum vulgare [27] = test: Inhibition of germination of Hordeum vulgare (barley) at 0.1 mM after 5 days relative to untreated control; conditions: 120 h
Lactuca sativa [28] = test: Inhibition of root length of Lactuca sativa cv. Nigra (lettuce) at 0.1 mM after 5 days relative to untreated control; conditions: for inhibition at 100 µM: 120 h
Hordeum vulgare [29] = test: Inhibition of root length of Hordeum vulgare (barley) at 0.1 mM after 5 days relative to untreated control; conditions: 120 h
Triticum aestivum [30] = test: Inhibition of shoot length of Triticum aestivum (wheat) at 0.1 mM after 5 days relative to untreated control
Lepidium sativum [31] = test: Stimulation of root length of Lepidium sativum at 0.1 mM after 5 days relative to untreated control
Allium cepa [32] = test: Stimulation of germination of Allium cepa (onion) at 0.1 mM after 5 days relative to untreated control
Triticum aestivum [33] = test: Stimulation of germination of Triticum aestivum (wheat) at 0.1 mM after 5 days relative to untreated control
Solanum lycopersicum [34] = test: Inhibition of germination of Solanum lycopersicum (tomato) at 0.1 mM after 5 days relative to untreated control; conditions: for inhibition at 100 µM: 120 h
Triticum aestivum [35] = test: Inhibition of root length of Triticum aestivum (wheat) at 0.1 mM after 5 days relative to untreated control
Lactuca sativa [36] = test: Stimulation of germination of Lactuca sativa cv. Roman (lettuce) at 0.1 mM after 5 days relative to untreated control
Lepidium sativum [37] = test: Inhibition of germination of Lepidium sativum at 0.1 mM after 5 days relative to untreated control
Triticum aestivum [38] = test: Inhibition of germination of Triticum aestivum (wheat) at 0.1 mM after 5 days relative to untreated control
Solanum lycopersicum [39] = test: Inhibition of shoot length of Solanum lycopersicum (tomato) at 0.1 mM after 5 days relative to untreated control; conditions: for inhibition at 100 µM: 120 h
Lepidium sativum [40] = test: Inhibition of shoot length of Lepidium sativum at 0.1 mM after 5 days relative to untreated control; conditions: for inhibition at 100 µM: 120 h
Hordeum vulgare [41] = test: Stimulation of germination of Hordeum vulgare (barley) at 0.1 mM after 5 days relative to untreated control
Triticum aestivum [42] = test: Stimulation of shoot length of Triticum aestivum (wheat) at 0.1 mM after 5 days relative to untreated control

SMILES: COC(=O)[C@@]1(C)CCC[C@]2(C)C3=CC(=O)OCC3=CC[C@@H]12
- Activity (Hordeum vulgare [1]): inactive
- inhibition at 100 µM (Lactuca sativa [2]): < 20%
- Activity (Lepidium sativum [3]): 20%
- Activity (Lactuca sativa [4]): 20%
- inhibition at 100 µM (Lactuca sativa [5]): 20%
- inhibition at 100 µM (Allium cepa [6]): 20%
- Activity (Lactuca sativa [7]): <20%
- inhibition (Solanum lycopersicum [8]): inactive
- Activity (Solanum lycopersicum [9]): inactive
- inhibition at 100 µM (Lepidium sativum [10]; 120 h): 20%
- Activity (Lactuca sativa [11]): <20%
- Activity (Allium cepa [12]): 20%
- Activity (Lactuca sativa [13]): inactive
- inhibition at 100 µM (Lactuca sativa [14]): < 20%
- Activity (Triticum aestivum [15]): inactive
- inhibition (Lactuca sativa [16]): inactive
- inhibition (Hordeum vulgare [17]): inactive
- Activity (Lactuca sativa [18]): <20%
- Activity (Hordeum vulgare [19]): >40%
- inhibition at 100 µM (Allium cepa [20]): < 20%
- inhibition at 100 µM (Lactuca sativa [21]): < 20%
- Activity (Lepidium sativum [22]): inactive
- Activity (Allium cepa [23]): 20%
- Activity (Solanum lycopersicum [24]): inactive
- inhibition at 100 µM (Allium cepa [25]): 20%
- Activity (Solanum lycopersicum [26]): inactive
- inhibition at 100 µM (Hordeum vulgare [27]): 20%
- inhibition at 100 µM (Lactuca sativa [28]): < 20%
- inhibition at 100 µM (Hordeum vulgare [29]): > 40%
- inhibition (Triticum aestivum [30]): inactive
- Activity (Lepidium sativum [31]): 20%
- Activity (Allium cepa [32]): <20%
- Activity (Triticum aestivum [33]): inactive
- inhibition (Solanum lycopersicum [34]): inactive
- inhibition (Triticum aestivum [35]): inactive
- Activity (Lactuca sativa [36]): <20%
- inhibition (Lepidium sativum [37]): inactive
- inhibition (Triticum aestivum [38]): inactive
- inhibition (Solanum lycopersicum [39]): inactive
- inhibition at 100 µM (Lepidium sativum [40]): 20%
- Activity (Hordeum vulgare [41]): 20%
- Activity (Triticum aestivum [42]): inactive

SMILES: COC(=O)[C@@]1(C)CCC[C@@]2(C)[C@H]1CC=C1COC(=O)C[C@@H]12
- Activity (Hordeum vulgare [1]): inactive
- inhibition at 100 µM (Lactuca sativa [2]): < 20%
- Activity (Lepidium sativum [3]): <20%
- Activity (Lactuca sativa [4]): <20%
- inhibition at 100 µM (Lactuca sativa [5]): < 20%
- inhibition (Allium cepa [6]): inactive
- Activity (Lactuca sativa [7]): <20%
- inhibition at 100 µM (Solanum lycopersicum [8]): > 40%
- Activity (Solanum lycopersicum [9]): 20%
- inhibition (Lepidium sativum [10]): inactive
- Activity (Lactuca sativa [11]): <20%
- Activity (Allium cepa [12]): inactive
- Activity (Lactuca sativa [13]): <20%
- inhibition at 100 µM (Lactuca sativa [14]): < 20%
- Activity (Triticum aestivum [15]): inactive
- inhibition at 100 µM (Lactuca sativa [16]; 120 h): < 20%
- inhibition (Hordeum vulgare [17]): inactive
- Activity (Lactuca sativa [18]): <20%
- Activity (Hordeum vulgare [19]): 20%
- inhibition at 100 µM (Allium cepa [20]): 20%
- inhibition at 100 µM (Lactuca sativa [21]): < 20%
- Activity (Lepidium sativum [22]): inactive
- Activity (Allium cepa [23]): <20%
- Activity (Solanum lycopersicum [24]): <20%
- inhibition at 100 µM (Allium cepa [25]): < 20%
- Activity (Solanum lycopersicum [26]): >40%
- inhibition at 100 µM (Hordeum vulgare [27]): > 40%
- inhibition at 100 µM (Lactuca sativa [28]): < 20%
- inhibition at 100 µM (Hordeum vulgare [29]): 20%
- inhibition (Triticum aestivum [30]): inactive
- Activity (Lepidium sativum [31]): inactive
- Activity (Allium cepa [32]): 20%
- Activity (Triticum aestivum [33]): <20%
- inhibition at 100 µM (Solanum lycopersicum [34]): < 20%
- inhibition (Triticum aestivum [35]): inactive
- Activity (Lactuca sativa [36]): <20%
- inhibition (Lepidium sativum [37]): inactive
- inhibition at 100 µM (Triticum aestivum [38]; 120 h): < 20%
- inhibition at 100 µM (Solanum lycopersicum [39]): 20%
- inhibition at 100 µM (Lepidium sativum [40]): < 20%
- Activity (Hordeum vulgare [41]): >40%
- Activity (Triticum aestivum [42]): inactive

SMILES: COC(=O)[C@@]1(C)CCC[C@]2(C)C3=CC(=O)OC[C@]34O[C@@H]4C[C@@H]12
- Activity (Hordeum vulgare [1]): <20%
- inhibition at 100 µM (Lactuca sativa [2]): < 20%
- Activity (Lepidium sativum [3]): inactive
- Activity (Lactuca sativa [4]): inactive
- inhibition (Lactuca sativa [5]): inactive
- inhibition at 100 µM (Allium cepa [6]): < 20%
- Activity (Lactuca sativa [7]): inactive
- inhibition at 100 µM (Solanum lycopersicum [8]): < 20%
- Activity (Solanum lycopersicum [9]): 20%
- inhibition (Lepidium sativum [10]): inactive
- Activity (Lactuca sativa [11]): inactive
- Activity (Allium cepa [12]): <20%
- Activity (Lactuca sativa [13]): inactive
- inhibition at 100 µM (Lactuca sativa [14]): < 20%
- Activity (Triticum aestivum [15]): 20%
- inhibition (Lactuca sativa [16]): inactive
- inhibition at 100 µM (Hordeum vulgare [17]; 120 h): < 20%
- Activity (Lactuca sativa [18]): <20%
- Activity (Hordeum vulgare [19]): 20%
- inhibition at 100 µM (Allium cepa [20]): < 20%
- inhibition (Lactuca sativa [21]): inactive
- Activity (Lepidium sativum [22]): inactive
- Activity (Allium cepa [23]): <20%
- Activity (Solanum lycopersicum [24]): 20%
- inhibition at 100 µM (Allium cepa [25]): < 20%
- Activity (Solanum lycopersicum [26]): <20%
- inhibition at 100 µM (Hordeum vulgare [27]): 20%
- inhibition (Lactuca sativa [28]): inactive
- inhibition at 100 µM (Hordeum vulgare [29]): 20%
- inhibition (Triticum aestivum [30]): inactive
- Activity (Lepidium sativum [31]): inactive
- Activity (Allium cepa [32]): <20%
- Activity (Triticum aestivum [33]): inactive
- inhibition at 100 µM (Solanum lycopersicum [34]): 20%
- inhibition at 100 µM (Triticum aestivum [35]; 120 h): 20%
- Activity (Lactuca sativa [36]): <20%
- inhibition (Lepidium sativum [37]): inactive
- inhibition (Triticum aestivum [38]): inactive
- inhibition at 100 µM (Solanum lycopersicum [39]): 20%
- inhibition (Lepidium sativum [40]): inactive
- Activity (Hordeum vulgare [41]): 20%
- Activity (Triticum aestivum [42]): inactive
